The values that follow come from patent publication US8415380B2 (Hoffmann-La Roche Inc., priority 2007, dated 2013).

pKi: −log10 of the molar value.

One data set addresses T1, rat mGlu2 receptor (Rattus norvegicus, UniProt P31421).
T1 construct: expressed in transfected cells; membranes prepared
Nature of the data set: [3H]-LY354740 binding on mGlu2 transfected CHO cell membranes. The conditions noted are these: 10 nM [3H]-LY354740, mGlu2 transfected CHO cell membranes, room temperature, 1 hour. The text has this: [^3H]-LY354740 Binding on mGlu2 Transfected CHO Cell Membranes Transfection and Cell Culture
cDNA encoding the rat mGlu2 receptor protein in pBluescript II was subcloned into the eukaryotic expression vector pcDNA I-amp from Invitrogen Ltd (Paisley, UK). This vector construct (pcD1mGR^2) was co-transfected with a psvNeo plasmid encoding the gene for neomycin resistance, into CHO cells by a modified calcium phosphate method described by Chen & Okayama (1988). The cells were maintained in Dulbecco's Modified Eagle medium with reduced L-glutamine (1 mM final concentration), 36 mg/L L-Proline and 10% dialysed foetal calf serum from Gibco-Invitrogen; the medium was supplemented with 500 microM α-methyl-4-carboxyphenylglycine (MCPG). Selection was made in the presence of G-418 (300 ug/ml final concentration). Clones were identified by reverse transcription of 5 μg total RNA, followed by PCR using mGlu2 receptor specific primers 5′-[…]-3′ and 5′-[…]-3′ in 60 mM Tris HCl (pH 10), 15 mM (NH4)2SO4, 2 mM MgCl2, 25 units/ml Taq Polymerase with 30 cycles annealing at 60° C. for 1 min., extention at 72° C. for 30 s, and 1 min. 95° C. denaturation.
Cells, cultured as above, were harvested and washed three times with cold PBS and frozen at −80° C. The pellet was resuspended in cold 20 mM HEPES-NaOH buffer containing 10 mM EDTA (pH 7.4), and homogenised with a polytron (Kinematica, A G, Littau, Switzerland) for 10 s at 10 000 rpm. After centrifugation for 30 min. at 4° C., the pellet was washed once with cold 20 mM HEPES-NaOH buffer containing 0.1 mM EDTA, (pH 7.4). After a second centrifugation for 30 min. at 4° C. the pellet was resuspended in cold 20 mM HEPES-NaOH buffer containing 0.1 mM EDTA, (pH 7.4). Protein content was measured using the Micro BCA method from Pierce-Perbio (Rockford, Ill., USA) using bovine serum albumin as standard.
After thawing, the membranes were resuspended in cold 50 mM Tris-HCl buffer containing 2 mM MgCl2 (pH 7.4) (binding buffer). The final concentration of the membranes in the assays was 25 μg protein/ml. Inhibition experiments were performed with membranes incubated with 10 nM [^3H]-LY354740 at room temperature, for 1 hour, in presence of various concentrations of the compound to be tested. Following the incubations, membranes were filtered onto Whatmann GF/B glass fiber filters or onto GF/B Unifilter plates and washed 5 times with cold binding buffer. Non specific binding was measured in the presence of 10 μM (2S,2′R,3′R)-2-(2′3′-Dicarboxycyclopropyl)glycine (DCG IV from Tocris, Ellisville, Mo. USA). After transfer of the filters into plastic vials containing 10 ml of Ultima-gold scintillation fluid from Perkin-Elmer (Boston, Mass., USA), the radioactivity was measured by liquid scintillation in a Tri-Carb 2500 TR counter (Packard, Zurich, Switzerland). For 96-Unifilter plates the radioactivity was measured after addition of Microscint 40 scintillation fluid (Perkin Elmer, Boston Mass.) using a TopCount NXT (Packard)
The inhibition curves were fitted with a four parameter logistic equation giving IC50 values, and Hill coefficients.

T1 sequence (P31421 19-872): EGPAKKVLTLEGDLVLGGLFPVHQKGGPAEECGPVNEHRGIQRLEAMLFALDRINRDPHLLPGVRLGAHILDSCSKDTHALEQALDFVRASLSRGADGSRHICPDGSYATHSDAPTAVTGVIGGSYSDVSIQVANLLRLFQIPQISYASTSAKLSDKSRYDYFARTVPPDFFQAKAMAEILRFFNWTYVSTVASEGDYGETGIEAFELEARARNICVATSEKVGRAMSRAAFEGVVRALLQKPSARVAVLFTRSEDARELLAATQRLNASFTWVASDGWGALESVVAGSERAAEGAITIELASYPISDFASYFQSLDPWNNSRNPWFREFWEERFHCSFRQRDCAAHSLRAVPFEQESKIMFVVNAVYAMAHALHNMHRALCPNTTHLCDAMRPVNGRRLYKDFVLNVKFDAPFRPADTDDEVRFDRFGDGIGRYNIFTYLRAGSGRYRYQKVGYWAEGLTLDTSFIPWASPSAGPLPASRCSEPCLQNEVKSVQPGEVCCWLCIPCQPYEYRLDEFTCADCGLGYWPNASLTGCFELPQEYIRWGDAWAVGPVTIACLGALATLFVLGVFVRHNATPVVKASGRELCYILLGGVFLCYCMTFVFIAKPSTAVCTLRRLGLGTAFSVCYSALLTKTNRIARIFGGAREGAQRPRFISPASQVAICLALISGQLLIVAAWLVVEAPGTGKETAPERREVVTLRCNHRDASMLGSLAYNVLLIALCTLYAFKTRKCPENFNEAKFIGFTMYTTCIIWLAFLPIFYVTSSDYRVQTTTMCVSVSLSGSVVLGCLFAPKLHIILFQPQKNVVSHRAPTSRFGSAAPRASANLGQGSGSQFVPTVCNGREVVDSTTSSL

The compound `NS(=O)(=O)c1cccc(-c2cn(-c3nc(-c4ccc(Cl)s4)cc(C(F)(F)F)n3)cn2)c1` [Example 1, 3-{1-[4-(5-Chloro-thiophen-2-yl)-6-trifluoromethyl-pyrimidin-2-yl]-1H-imidazol-4-yl}-benzenesulfonamide] came in with a melting point of 189 °C. The pKi at rat mGlu2 receptor was 7.94. On the same counts, the results for `NS(=O)(=O)c1cccc(-c2cccc(-c3nc(-c4ccc(C(F)(F)F)nc4)cc(C(F)(F)F)n3)c2)c1` [Example 2, 3′-[4-Trifluoromethyl-6-(6-trifluoromethyl-pyridin-3-yl)-pyrimidin-2-yl]-biphenyl-3-sulfonic acid amide] are 211 °C and 8.74. The corresponding values for `NS(=O)(=O)c1ccc(-c2cccc(-c3nc(-c4ccc(C(F)(F)F)nc4)cc(C(F)(F)F)n3)c2)s1` [Example 3, 5-{3-[4-Trifluoromethyl-6-(6-trifluoromethyl-pyridin-3-yl)-pyrimidin-2-yl]-phenyl}-thiophene-2-sulfonic acid amide] are 250.5 °C and 7.92. Regarding `NS(=O)(=O)c1cccc(-c2cccc(-c3nc(-c4ccc(Cl)s4)cc(C(F)(F)F)n3)c2)c1` [Example 4, 3′-[4-(5-Chloro-thiophen-2-yl)-6-trifluoromethyl-pyrimidin-2-yl]-biphenyl-3-sulfonic acid amide], the melting point came to 226.5 °C. The compound also showed a negative logarithm of the Ki (pKi) at rat mGlu2 receptor of 7.84. In the case of `Nc1ccc(-c2cccc(-c3nc(-c4ccc(Cl)s4)cc(C(F)(F)F)n3)c2)cn1` [Example 5, 5-{3-[4-(5-Chloro-thiophen-2-yl)-6-trifluoromethyl-pyrimidin-2-yl]-phenyl}-pyridin-2-ylamine], the melting point turned out to be 99 °C. Further, the negative-log Ki (pKi) on rat mGlu2 receptor was 6.86. On to `Nc1ncc(-c2cccc(-c3nc(-c4ccc(Cl)s4)cc(C(F)(F)F)n3)c2)cn1` [Example 6, 5-{3-[4-(5-Chloro-thiophen-2-yl)-6-trifluoromethyl-pyrimidin-2-yl]-phenyl}-pyrimidin-2-ylamine], for which the melting point turned out to be 228 °C.

`NS(=O)(=O)c1ccc(-c2cccc(-c3nc(-c4ccc(Cl)s4)cc(C(F)(F)F)n3)c2)s1` [Example 7, 5-{3-[4-(5-Chloro-thiophen-2-yl)-6-trifluoromethyl-pyrimidin-2-yl]-phenyl}-thiophene-2-sulfonic acid amide] gave a melting point of 233 °C. `Nc1ccc(-c2cc(-c3nc(-c4ccc(C(F)(F)F)nc4)cc(C(F)(F)F)n3)ccn2)cn1` [Example 8, 4-[4-Trifluoromethyl-6-(6-trifluoromethyl-pyridin-3-yl)-pyrimidin-2-yl]-[2,3′]bipyridinyl-6′-ylamine] had a melting point of 261.5 °C. This compound also showed a pKi on rat mGlu2 receptor of 7.81.

As to `CCC(=O)NS(=O)(=O)c1cccc(-c2cc(-c3nc(-c4ccc(C(F)(F)F)nc4)cc(C(F)(F)F)n3)ccn2)c1` [Example 11, N-Propionyl-3-{4-[4-trifluoromethyl-6-(6-trifluoromethyl-pyridin-3-yl)-pyrimidin-2-yl]-pyridin-2-yl}-benzenesulfonamide], the melting point amounted to 242 °C. Still for that read-out and setting: with `Nc1ccc(-c2cn(-c3nc(-c4ccc(C(F)(F)F)nc4)cc(C(F)F)n3)cn2)cn1` [Example 14, 5-{1-[4-Difluoromethyl-6-(6-trifluoromethyl-pyridin-3-yl)-pyrimidin-2-yl]-1H-imidazol-4-yl}-pyridin-2-ylamine] the figure was 258 °C; with `NS(=O)(=O)c1cccc(-c2cccc(-c3nc(-c4ccc(C(F)(F)F)nc4)cc(C(F)F)n3)c2)c1` [Example 15, 3′-[4-Difluoromethyl-6-(6-trifluoromethyl-pyridin-3-yl)-pyrimidin-2-yl]-biphenyl-3-sulfonic acid amide], 222 °C. As to `NS(=O)(=O)c1cccc(-c2cc(-c3nc(-c4ccc(C(F)(F)F)nc4)cc(C(F)F)n3)ccn2)c1` [Example 16, 3-{4-[4-Difluoromethyl-6-(6-trifluoromethyl-pyridin-3-yl)-pyrimidin-2-yl]-pyridin-2-yl}-benzenesulfonamide], the melting point was determined as 264.5 °C. Same read-out and setting: with `NS(=O)(=O)c1ccc(-c2cccc(-c3nc(-c4ccc(C(F)(F)F)nc4)cc(C(F)F)n3)c2)s1` [Example 18, 5-{3-[4-Difluoromethyl-6-(6-trifluoromethyl-pyridin-3-yl)-pyrimidin-2-yl]-phenyl}-thiophene-2-sulfonic acid amide] the figure was 245.5 °C. The compound `Cc1cc(-c2ccc(C(F)(F)F)nc2)nc(-c2ccnc(-c3cccc(S(N)(=O)=O)c3)c2)n1` [Example 21, 3-{4-[4-Methyl-6-(6-trifluoromethyl-pyridin-3-yl)-pyrimidin-2-yl]-pyridin-2-yl}-benzenesulfonamide] gave a melting point of 255 °C. On the same count and under the same terms, under `Cc1cc(-c2ccc(C(F)(F)F)nc2)nc(-c2ccnc(-c3ccc(S(N)(=O)=O)s3)c2)n1` [Example 22, 5-{4-[4-Methyl-6-(6-trifluoromethyl-pyridin-3-yl)-pyrimidin-2-yl]-pyridin-2-yl}-thiophene-2-sulfonic acid amide] stands 289 °C; under `Cc1cc(-c2ccc(C(F)(F)F)nc2)nc(-c2cccc(-c3cccc(S(N)(=O)=O)c3)c2)n1` [Example 23, 3′-[4-Methyl-6-(6-trifluoromethyl-pyridin-3-yl)-pyrimidin-2-yl]-biphenyl-3-sulfonic acid amide], 220 °C; under `Cc1cc(-c2ccc(C(F)(F)F)nc2)nc(-c2cccc(-c3ccc(S(N)(=O)=O)s3)c2)n1` [Example 24, 5-{3-[4-Methyl-6-(6-trifluoromethyl-pyridin-3-yl)-pyrimidin-2-yl]-phenyl}-thiophene-2-sulfonic acid amide], 237.5 °C. With `Cc1cc(-c2ccc(C(F)(F)F)cn2)nc(-c2cccc(-c3cccc(S(=O)(=O)NC(C)(C)C)c3)n2)n1` [Example 25], the pKi at rat mGlu2 receptor was 6.98. For `Cc1cc(-c2ccc(C(F)(F)F)cn2)nc(-c2cccc(-c3cccc(S(N)(=O)=O)c3)n2)n1` [Example 27, 3-{6-[4-Methyl-6-(5-trifluoromethyl-pyridin-2-yl)-pyrimidin-2-yl]-pyridin-2-yl}-benzenesulfonamide], the melting point was 246 to 252 °C. `Cc1cc(-c2ccc(C(F)(F)F)nc2)nc(-c2cccc(-c3cccc(S(N)(=O)=O)c3)n2)n1` [Example 28, 3-{6-[4-Methyl-6-(6-trifluoromethyl-pyridin-3-yl)-pyrimidin-2-yl]-pyridin-2-yl}-benzenesulfonamide] yielded a melting point of 254 °C. The same measure, in the same setting: with `Cc1cc(-c2ccc(C(F)(F)F)nc2)cc(-c2cccc(-c3cccc(S(N)(=O)=O)c3)c2)n1` [Example 34, 3′-(6′-Methyl-6-trifluoromethyl-[3,4′]bipyridinyl-2′-yl)-biphenyl-3-sulfonic acid amide] the figure was 227 to 232 °C; with `Cc1cc(-c2ccc(C(F)(F)F)nc2)cc(-c2cccc(-c3ccc(S(N)(=O)=O)s3)c2)n1` [Example 35, 5-[3-(6′-Methyl-6-trifluoromethyl-[3,4′]bipyridinyl-2′-yl)-phenyl]-thiophene-2-sulfonic acid amide], 231 to 233 °C.

The term pKi denotes −log10 of the Ki, conventionally taken in molar units. A word on the melting point: it is the temperature, or range, at which the solid turns liquid.
